Results: patent US6589759B1, “Compositions and methods for producing platelets and/or proplatelets from megakaryocytes” (Trustees of Boston University, priority 1999, dated 2003)

Key:
Meg-01 cells [1] = assay: Platelet-sized particle production from Meg-01 cells by flow cytometry (GPIIIa positive); type: cell-based, human; conditions: for production of GPIIIa positive platelet-sized particles: Meg-01 cells pretreated with 100 ng/ml thrombopoietin for 72 hours, then 100 μM SNO-glu for 2 hours
Procedure: The production of platelet-sized particles in the Meg-01 cell line using flow cytometry was determined. Human megakaryoblastic leukemia cell line Meg-01 was obtained from American Type Culture Collection (Manassas, Va.) and grown in phenol red-free RPMI-1640 media (Gibco-BRL, Grand Island, N.Y.) supplemented with 10% fetal bovine serum at 37° C. in a humidified atmosphere of 5% CO2. The experiment to monitor platelet production by the megakaryocytoid cell line, Meg-01, were performed as follows: 10 ml of Meg-01 cells (1×10^5/ml) were treated with 100 ng/ml of thrombopoietin (TPO, Amgen, Thousand Oaks, Calif.) for 72 hours. The cells were then centrifuged at 1000 rpm for 10 minutes, washed with phosphate buffered saline (PBS) and resuspended in RPMI-1640 media. Meg-01 cells, in the presence and absence of TPO, were treated with 100 μM SNO-glu for 2 hours. The cells were collected by centrifugation (1000 rpm for 10 minutes), washed once in PBS, resuspended in 500 μl of 3% formaldehyde, and allowed to fix for 20 minutes at room temperature. After fixation, 100 μl of cells were labeled with fluorescein isothiocyanate-conjugated (FITC)-conjugated monoclonal mouse anti-human platelet glycoprotein IIIa, CD61 (GPIIIa, DAKO Corp. Carpinteria, Calif.) at a near saturating concentration and incubated at room temperature for 20 minutes. The sample was diluted in 100 μl of PBS and analyzed on a Coulter EPICS XL flow cytometer (Coulter, Miami, Fla.). DNA check flow cytometry beads purchased from Coulter were used for daily instrument calibration. Appropriate color compensation was set for FITC fluorescence and phycoerythrin fluorescence using 525 nm and 575 nm band pass filters, respectively. All data were saved in flow cytometry list mode files and analyzed using Coulter ELITE software, version 2.21. Platelet-sized particles were identified by characteristic log forward light scatter (LFS). Only those particles that bound the anti-GPIIIa-FITC antibody ([…] FITC-conjugated antibody) (Dako, Denmark) were analyzed (by gating the fluorescence signal).

Meg-01 cells [2] = assay: Production of cGMP from megakaryocytes treated with SNO-glu (ELISA); type: cell-based, human; conditions: for cGMP: n = 2
Procedure: The Meg-01 cells were grown as described in Example 1. The Med-01 cells, in the presence and absence of TPO, were treated with 100 μM SNO-glu for varying lengths of time. The cells were collected by centrifugation (1000 rpm for 10 minutes), and then lysed with 6% trichloroacteic acid (TCA). The cGMP was extracted with distilled water-saturated ether. The cGMP was quantified using the standard ELISA assay (Caymen Chemical Inc., Ann Arbor, Mich.).

Compound	production of GPIIIa positive platelet-sized particles (Meg-01 cells [1]; listed as S-nitroso-glutathione)	production of GPIIIa positive platelet-sized particles (Meg-01 cells [1]; listed as SNO-glu)	formation of GPIIIa positive platelet-sized particles (Meg-01 cells [1]; Meg-01 cells, 100 μM SNO-glu for 2 hours, no TPO)	cGMP (Meg-01 cells [2]; 100 μM SNO-Glu in the presence of TPO, 30 minutes)	cGMP (Meg-01 cells [2]; 100 μM, 5 minutes)	cGMP (Meg-01 cells [2]; 100 μM, 10 minutes)	cGMP (Meg-01 cells [2]; 100 μM, 20 minutes)	cGMP (Meg-01 cells [2]; 100 μM, 30 minutes)	production of cGMP (in words) (Meg-01 cells [2]; Meg-01 cells, 100 μM SNO-glu)	effect of added TPO on cGMP production during SNO-glu treatment (Meg-01 cells [2]; Meg-01 cells, TPO added during 100 μM SNO-glu treatment)
N[C@@H](CCC(=O)N[C@@H](CSN=O)C(=O)NCC(=O)O)C(=O)O [SNO-Glu, S-nitroso-glutathione]	promoted platelet-like particle formation	enhanced production of GPIIIa positive platelet-sized particles	formation of GPIIIa positive platelet-sized particle population	0.960 pmol cGMP/mg Protein	263.1 pmol cGMP/mg Protein	461.2 pmol cGMP/mg Protein	472.9 pmol cGMP/mg Protein	611.3 pmol cGMP/mg Protein	increased production of cGMP	
TPO: thrombopoiesis stimulating factor thrombopoietin (TPO, Amgen)										completely suppressed the production of cGMP
